Active and inactive are the calls of the source. The rule behind the calls is not given here.
Tests used:
[1] = Selectivity index, ratio of IC50 for african green monkey Vero cells to IC50 for intracellular amastigote form of Trypanosoma cruzi IRHOD/CO/2008/SN3; assay type: toxicity, cell-based; details: read-out: Ratio IC50
Trypanosoma cruzi [2] = assay: Trypanocidal activity against epimastigote Trypanosoma cruzi IRHOD/CO/2008/SN3; assay type: functional, organism-based
Trypanosoma cruzi [3] = assay: Trypanocidal activity against intracellular amastigote form of Trypanosoma cruzi IRHOD/CO/2008/SN3 in african green monkey Vero cells; assay type: functional, organism-based; details: IRHOD/CO/2008/SN3, Vero
Vero = assay: Cytotoxicity against african green monkey Vero cells after 72 hrs; assay type: cell-based; details: Chlorocebus sabaeus
[4] = Selectivity index, ratio of IC50 for african green monkey Vero cells to IC50 for epimastigote Trypanosoma cruzi IRHOD/CO/2008/SN3; assay type: toxicity, cell-based; details: read-out: Ratio IC50
Trypanosoma cruzi [5] = assay: (§1) Antiparasitic activity against trypomastigote form of Trypanosoma cruzi IRHOD/CO/2008/SN3 infected in BALB/c mouse acute chagas disease model assessed as heart free from parasite at 25 mg/kg, ip after 60 days immunosuppressed with cyclophosphamide monohydrate measured up to day 120 post infection by PCR analysis; assay type: functional; details: route intraperitoneal
[6] = target: Superoxide dismutase [Cu-Zn] (Homo sapiens, UniProt P00441); assay: Inhibition of CuZn-SOD in human erythrocytes; assay type: cell-based
Trypanosoma cruzi [7] = assay: Antiparasitic activity against trypomastigote form of Trypanosoma cruzi IRHOD/CO/2008/SN3 infected in BALB/c mouse acute chagas disease model assessed as parasite reduction in blood at 25 mg/kg, ip measured on day 40 post infection; assay type: functional; details: IRHOD/CO/2008/SN3, Blood, 960 h, route intraperitoneal
Trypanosoma cruzi [8] = assay: Increase in succinate catabolites in epimastigote Trypanosoma cruzi at IC25 concentration after 96 hrs; assay type: functional
Trypanosoma cruzi [9] = assay: Decrease in pyruvate catabolites in epimastigote Trypanosoma cruzi at IC25 concentration after 96 hrs; assay type: functional
Trypanosoma cruzi [10] = assay: Trypanocidal activity against epimastigote Trypanosoma cruzi IRHOD/CO/2008/SN3 infected in african green monkey Vero cells assessed as decrease in average number of amastigotes per infected cell at IC25 concentration on day 10; assay type: functional; parameters: scale not given: the % may be the effect or the level left
Mus musculus [11] = assay: Toxicity in Trypanosoma cruzi IRHOD/CO/2008/SN3 infected in BALB/c mouse acute chagas disease model assessed as liver marker ALT/GPT level at 25 mg/kg, ip after 60 days immunosuppressed with cyclophosphamide monohydrate measured up to day 120 post infection […]; assay type: organism-based; parameters: dose 25 mg/kg, route intraperitoneal; details: in vivo, 1440 h
Trypanosoma cruzi [12] = assay: Trypanocidal activity against epimastigote Trypanosoma cruzi IRHOD/CO/2008/SN3 infected in african green monkey Vero cells assessed as decrease in rate of infection at IC25 concentration on day 10; assay type: functional
Mus musculus [13] = assay: Toxicity in Trypanosoma cruzi IRHOD/CO/2008/SN3 infected in BALB/c mouse acute chagas disease model assessed as heart marker CK-MB level at 25 mg/kg, ip after 60 days immunosuppressed with cyclophosphamide monohydrate measured up to day 120 post infection […]; assay type: organism-based; parameters: dose 25 mg/kg, route intraperitoneal; details: in vivo, 1440 h
Trypanosoma cruzi [14] = assay: Decrease in acetate catabolites in epimastigote Trypanosoma cruzi at IC25 concentration after 96 hrs; assay type: functional
Trypanosoma cruzi [15] = assay: as §1, with “parasitemia reactivation” for “heart free from parasite”, “(reference value: 80.3%)” for “by PCR analysis”; assay type: functional; details: route intraperitoneal
Mus musculus [16] = assay: Toxicity in Trypanosoma cruzi IRHOD/CO/2008/SN3 infected in BALB/c mouse acute chagas disease model assessed as kidney marker urea level at 25 mg/kg, ip after 60 days immunosuppressed with cyclophosphamide monohydrate measured up to day 120 post infection […]; assay type: organism-based; parameters: dose 25 mg/kg, route intraperitoneal; details: in vivo, 1440 h
[17] = Inhibition of Fe-SOD in Trypanosoma cruzi epimastigote
Mus musculus [18] = assay: Toxicity in Trypanosoma cruzi IRHOD/CO/2008/SN3 infected in BALB/c mouse acute chagas disease model assessed as alkalyne phosphatase level at 25 mg/kg, ip after 60 days immunosuppressed with cyclophosphamide monohydrate measured up to day 120 post infection […]; assay type: organism-based; parameters: dose 25 mg/kg, route intraperitoneal; details: in vivo, 1440 h
Mus musculus [19] = assay: Toxicity in Trypanosoma cruzi IRHOD/CO/2008/SN3 infected in BALB/c mouse acute chagas disease model assessed as total bilirubuin level at 25 mg/kg, ip after 60 days immunosuppressed with cyclophosphamide monohydrate measured up to day 120 post infection […]; assay type: organism-based; parameters: dose 25 mg/kg, route intraperitoneal; details: in vivo, 1440 h
Trypanosoma cruzi [20] = assay: Trypanocidal activity against epimastigote Trypanosoma cruzi IRHOD/CO/2008/SN3 assessed as morphological disturbance at IC25 concentration; assay type: functional, organism-based
Mus musculus [21] = assay: Toxicity in Trypanosoma cruzi IRHOD/CO/2008/SN3 infected in BALB/c mouse acute chagas disease model assessed as kidney marker uric acid level at 25 mg/kg, ip after 60 days immunosuppressed with cyclophosphamide monohydrate measured up to day 120 post infection […]; assay type: organism-based; parameters: dose 25 mg/kg, route intraperitoneal; details: in vivo, 1440 h
Trypanosoma cruzi [22] = assay: Decrease in L-alanine catabolites in epimastigote Trypanosoma cruzi at IC25 concentration after 96 hrs; assay type: functional
Trypanosoma cruzi [23] = assay: Antiparasitic activity against trypomastigote form of Trypanosoma cruzi IRHOD/CO/2008/SN3 infected in BALB/c mouse acute chagas disease model assessed as parasite reduction in blood; assay type: functional, organism-based; details: IRHOD/CO/2008/SN3, Blood
Mus musculus [24] = assay: Toxicity in Trypanosoma cruzi IRHOD/CO/2008/SN3 infected in BALB/c mouse acute chagas disease model assessed as heart marker LDH level at 25 mg/kg, ip after 60 days immunosuppressed with cyclophosphamide monohydrate measured up to day 120 post infection […]; assay type: organism-based; parameters: dose 25 mg/kg, route intraperitoneal; details: in vivo, 1440 h
Mus musculus [25] = assay: Toxicity in Trypanosoma cruzi IRHOD/CO/2008/SN3 infected in BALB/c mouse acute chagas disease model assessed as liver marker AST/GOT level at 25 mg/kg, ip after 60 days immunosuppressed with cyclophosphamide monohydrate measured up to day 120 post infection […]; assay type: organism-based; parameters: dose 25 mg/kg, route intraperitoneal; details: in vivo, 1440 h
Trypanosoma cruzi [26] = assay: Decrease in D-lactate catabolites in epimastigote Trypanosoma cruzi at IC25 concentration after 96 hrs; assay type: functional
Trypanosoma cruzi [27] = assay: Inhibition of Fe-SOD in Trypanosoma cruzi epimastigote at 80 uM
[28] = Selectivity index, ratio of IC50 for african green monkey Vero cells to IC50 for trypomastigote form of Trypanosoma cruzi IRHOD/CO/2008/SN3; assay type: toxicity, cell-based; details: read-out: Ratio IC50
Trypanosoma cruzi [29] = assay: as §1, with “parasitemia reactivation” for “heart free from parasite”, “5” for “25”, “(reference value: 80.3%)” for “by PCR analysis”; assay type: functional; details: route intraperitoneal
Trypanosoma cruzi [30] = assay: Antiparasitic activity against trypomastigote form of Trypanosoma cruzi IRHOD/CO/2008/SN3 infected in BALB/c mouse acute chagas disease model assessed as parasite reduction in blood at 5 mg/kg, ip measured on day 40 post infection; assay type: functional; parameters: scale not given: the % may be the effect or the level left; details: route intraperitoneal
Leishmania donovani [31] = assay: Antileishmanial activity against intracellular amastigote stage of Leishmania donovani; assay type: functional, organism-based
L6 = assay: Cytotoxicity against rat L6 cells; assay type: cell-based
[32] = Selectivity index, ratio of IC50 for human MRC5 cells to IC50 for Trypanosoma brucei Squib-427; assay type: toxicity, cell-based; details: read-out: Ratio IC50
Plasmodium falciparum = assay: Antiplasmodial activity against chloroquine-resistant Plasmodium falciparum 2/K1-strain cultured in human red blood cells assessed as infected cells after 72 hrs by malstat method; assay type: functional, organism-based; details: 2/K1, 72 h
[33] = Selectivity index, ratio of IC50 for human MRC5 cells to IC50 for Plasmodium falciparum 2/K 1-strain; assay type: toxicity, cell-based; details: read-out: Ratio IC50
Trypanosoma brucei = assay: Antitrypanosomal activity against trypomastigote Trypanosoma brucei Squib-427 strain cultured in MRC-5 cells assessed as parasite growth after 7 days by beta-galactosidase assay; assay type: functional, organism-based; details: Squib-427, MRC5, 168 h
Trypanosoma cruzi [34] = assay: Increase in acetate catabolites in epimastigote Trypanosoma cruzi at IC25 concentration after 96 hrs; assay type: functional
Trypanosoma cruzi [35] = assay: Increase in L-alanine catabolites in epimastigote Trypanosoma cruzi at IC25 concentration after 96 hrs; assay type: functional
Trypanosoma cruzi [36] = assay: Increase in D-lactate catabolites in epimastigote Trypanosoma cruzi at IC25 concentration after 96 hrs; assay type: functional
Trypanosoma cruzi [37] = assay: Increase in pyruvate catabolites in epimastigote Trypanosoma cruzi at IC25 concentration after 96 hrs; assay type: functional
Leishmania donovani [38] = assay: Antileishmanial activity against intracellular amastigote form of Leishmania donovani; assay type: functional, organism-based
Leishmania major = assay: Antileishmanial activity against Leishmania major; assay type: functional, organism-based

Chain of Superoxide dismutase [Cu-Zn] (P00441 whole entry): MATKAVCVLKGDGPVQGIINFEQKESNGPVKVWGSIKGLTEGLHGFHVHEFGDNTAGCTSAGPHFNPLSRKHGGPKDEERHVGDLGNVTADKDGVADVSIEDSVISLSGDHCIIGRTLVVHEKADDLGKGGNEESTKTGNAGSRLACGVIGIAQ

CC(C)c1cc2c(c(Br)c1O)[C@@]1(C)CCCC(C)(C)[C@@H]1CC2
selectivity ratio [1]: 4.38
IC50 (Trypanosoma cruzi [2]): 49.7 µM
IC50 (Trypanosoma cruzi [3]): 41.9 µM
IC50 (Vero): 184 µM
selectivity ratio [4]: 3.69

CC(C)c1cc2c(cc1O)[C@@]1(C)CCC[C@@](C)(CO)[C@@H]1[C@@H](O)C2=O
Activity (Trypanosoma cruzi [5]): 50%
IC50 [6]: 56.6 µM
inhibition in vivo at 25 mg/kg (Trypanosoma cruzi [7]): 45%
selectivity ratio [1]: 31.4
Activity (Trypanosoma cruzi [8]): 17.1%
inhibition (INH) (Trypanosoma cruzi [9]): 1.4%
Activity (Trypanosoma cruzi [10]): 38%
IC50 (Trypanosoma cruzi [2]): 18.7 µM
Activity (Mus musculus [11]): < 10%
inhibition (INH) (Trypanosoma cruzi [12]): 80%
Activity (Mus musculus [13]): < 10%
inhibition (INH) (Trypanosoma cruzi [14]): 0.3%
Activity (Trypanosoma cruzi [15]): 9.8%
Activity (Mus musculus [16]): < 10%
IC50 [17]: 42.1 µM
Activity (Mus musculus [18]): < 10%
Activity (Mus musculus [19]): < 10%
IC50 (Trypanosoma cruzi [3]): 7.1 µM
Activity (Trypanosoma cruzi [20]): Active
Activity (Mus musculus [21]): < 10%
IC50 (Vero): 222 µM
inhibition (INH) (Trypanosoma cruzi [22]): 7.7%
IC50 (Trypanosoma cruzi [23]): 59.9 µM
Activity (Mus musculus [24]): > 10%
Activity (Mus musculus [25]): > 10%
inhibition (INH) (Trypanosoma cruzi [26]): 6.4%
selectivity ratio [4]: 11.8
inhibition (Trypanosoma cruzi [27]): 100%
selectivity ratio [28]: 3.7

O=C(Cn1ccnc1[N+](=O)[O-])NCc1ccccc1 [BENZNIDAZOLE]
Activity (Trypanosoma cruzi [29]): 36%
Activity (Trypanosoma cruzi [30]): 16.7%

COc1c(C(C)C)cc2c(c1O)[C@@]1(C(=O)O)CCCC(C)(C)[C@@H]1CC2
IC50 (Leishmania donovani [31]): 0.75 µM
IC50 (L6): 17.3 µM

CC(=O)OC[C@@]1(C)CCC[C@]2(C)c3cc(O)c(C(C)C)cc3C(=O)C[C@@H]12
selectivity ratio [1]: 2.8
IC50 (Trypanosoma cruzi [2]): 26.3 µM
IC50 (Trypanosoma cruzi [3]): 25.5 µM
IC50 (Vero): 72.7 µM
selectivity ratio [4]: 2.8

CC(C)C1=CC2=C[C@H](O)[C@H]3C(C)(C)C(O)C=C[C@]3(C)C2=C(O)C1=O (some centres not stated)
selectivity ratio [32]: 50.5
IC50 (Plasmodium falciparum): 9.2 µM
selectivity ratio [33]: 10.4
IC50 (Trypanosoma brucei): 1.9 µM

COC(=O)[C@]1(C)CCC[C@]2(C)c3ccc(O)cc3CC[C@@H]12
Activity (Trypanosoma cruzi [5]): 17%
Activity (Trypanosoma cruzi [34]): 6.3%
IC50 [6]: 58.9 µM
inhibition in vivo at 25 mg/kg (Trypanosoma cruzi [7]): 22%
selectivity ratio [1]: 17.5
Activity (Trypanosoma cruzi [8]): 30%
Activity (Trypanosoma cruzi [10]): 41%
IC50 (Trypanosoma cruzi [2]): 39.2 µM
Activity (Trypanosoma cruzi [35]): 0.5%
Activity (Mus musculus [11]): < 10%
Activity (Trypanosoma cruzi [15]): 48.1%
Activity (Mus musculus [16]): < 10%
IC50 [17]: 43.9 µM
Activity (Mus musculus [18]): < 10%
Activity (Mus musculus [19]): < 10%
IC50 (Trypanosoma cruzi [3]): 27.1 µM
Activity (Trypanosoma cruzi [20]): inactive
Activity (Trypanosoma cruzi [36]): 0.4%
IC50 (Vero): 474 µM
IC50 (Trypanosoma cruzi [23]): 89.3 µM
Activity (Mus musculus [24]): < 10%
Activity (Mus musculus [25]): < 10%
Activity (Trypanosoma cruzi [37]): 2.3%
selectivity ratio [4]: 12.1
inhibition (Trypanosoma cruzi [27]): 100%
selectivity ratio [28]: 5.3

CC(C)c1cc2c(cc1O)[C@@]1(C)CCCC(C)(C)[C@@H]1CC2=O [SUGIOL]
selectivity ratio [1]: 1.84
IC50 (Trypanosoma cruzi [2]): 33.1 µM
IC50 (Trypanosoma cruzi [3]): 24.6 µM
IC50 (Vero): 45.4 µM
selectivity ratio [4]: 1.37

CC(C)C1=CC(=O)C2=C(CC[C@H]3C(C)(C)CCC[C@]23C)C1=O
IC50 (Leishmania donovani [38]): 0.12 µM
IC50 (Leishmania major): 0.18 µM

COC1=C(C(C)C)C(=O)C2=C(O)C(=O)C3=C(C=CCC3(C)C)C2=C1
IC50 (Leishmania donovani [38]): 0.17 µM
IC50 (Leishmania major): 0.29 µM
